Data published in US4965280A, “Antifungal carbinols” (E. I. Du Pont de Nemours and Company, priority 1989, dated 1990).
Converted amounts (≈) assume the structure as drawn. Where two headings read alike, the source gives them in different places.

What was measured:
Rhizoctonia solani [1] = assay: Example F rice sheath blight; format: in vivo; conditions: Rhizoctonia solani, 144 h, read-out: disease control rating, Ex. F
Method in brief: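 Compounds, dissolved in acetone at 6% of final volume, were suspended at 100 or 20 ppm in purified water with 250 ppm polyhydric alcohol ester surfactant (TREM 014). Rice seedlings were sprayed with this suspension to run-off.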

[2] = tested on: Candida albicans ATCC 11651; assay: In vivo systemic Candida infection in mice, primary assay; parameters: species or system Candida albicans; CF-1 female mice; conditions: Candida albicans, 150 mg/kg per day, read-out: % Survival
Method in brief: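 CF-1 female mice (20 g, 10 per group) were infected IV with 0.2 ml of 1×10^7/ml C. albicans ATCC 11651, then given test compound subcutaneously at 50 or 150 mg/kg/day at 1 and 6 h post-infection and once daily for three more days. Survival was followed for 21 days against infected untreated mice; ≥70% protection at 14 days was scored active.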

Plasmorpara viticola = assay: Example I grape downy mildew; format: in vivo; conditions: read-out: disease control rating, Ex. I
Method in brief: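 First, each compound is taken up in acetone amounting to 6% of the final volume. It is then suspended in purified water containing 250 ppm of the polyhydric alcohol ester surfactant TREM 014, at 100 or 20 ppm. Finally, the suspension is sprayed onto grape seedlings until run-off.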

Venturia inaequalis = assay: Example A apple scab; format: in vivo; conditions: read-out: disease control rating, Ex. A
Method in brief: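 Test compounds were dissolved in acetone (6% of final volume) and suspended at 100 or 20 ppm in purified water containing 250 ppm of the surfactant TREM 014 (polyhydric alcohol esters). Apple seedlings were sprayed with this suspension to the point of run-off.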

[3] = tested on: Erysiphe graminis f. sp. tritici; assay: Example D wheat powdery mildew; format: in vivo; conditions: Blumeria graminis, 144 h, read-out: disease control rating, Ex. D
Method in brief: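 Compounds were dissolved in acetone (6% of final volume), then suspended at 100 or 20 ppm in purified water containing 250 ppm TREM 014 surfactant. Wheat seedlings were sprayed with this suspension to run-off.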

[4] = tested on: Fusarium oxysporum f. sp. cucumerinum; assay: Example L cucumber wilt; format: in vivo; conditions: 336 h, 5 kg/ha, read-out: disease control rating, Ex. L
Method: […] Seeds and soil were then inoculated with a mixture of sand, cereal and mycelium of the fungus Fusarium oxysporum f. sp. cucumerinum, causal agent of cucumber wilt, and incubated in a growth chamber at 30° C. for 14 days. Disease ratings were then made.

Puccinia recondita = assay: Example G wheat leaf rust; format: in vivo; conditions: read-out: disease control rating, Ex. G
Botrytis cinerea = assay: Example C bean grey mold; format: in vivo; conditions: Botrytis cinerea, 24 h, read-out: disease control rating, Ex. C
Method in brief: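 Test compounds were taken up in acetone (6% of final volume) and suspended at 100 or 20 ppm in purified water containing 250 ppm TREM 014 surfactant (polyhydric alcohol esters). Broad bean seedlings were sprayed with this suspension until run-off.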

[5] = tested on: Aspergillus fumigatus ATCC 28214; assay: In vitro antifungal MIC, microtiter broth dilution; conditions: Aspergillus fumigatus, ATCC28214, 24 h, read-out: MIC values, A. fumigatus, 30°, 24 hours
Phytophthora infestans = assay: whole plant or invertebrate; format: in vivo; conditions: Phytophthora infestans, in Solanum lycopersicum, read-out: disease control rating, Ex. H, 100 PPM
[6] = tested on: Cercosporidium personatum; assay: Example B Peanut Late Leafspot; format: in vivo; conditions: Nothopassalora personata, read-out: disease control rating, Ex. B
Method in brief: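 Compounds were dissolved in acetone (6% of final volume) and suspended at 100 or 20 ppm in purified water containing 250 ppm TREM 014 surfactant (polyhydric alcohol esters). The suspension was sprayed to run-off on peanut seedlings.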

Pythium aphanadermatum = assay: Example J cucumber damping off; format: in vivo; conditions: Pythium, 336 h; 5 kg/ha; read-out: disease control rating, Ex. J
Method in brief: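 Seeds and soil were inoculated with a mix of sand, cereal and Pythium aphanadermatum mycelium, the fungus responsible for cucumber damping off. They were kept in a growth chamber at 30° C. for 14 days, and disease was then rated to assess control.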

[7] = tested on: Candida albicans ATCC 11651; assay: In vitro antifungal MIC, microtiter broth dilution; conditions: for MIC: Candida albicans, ATCC11651, 24 h, read-out: MIC values, C. albicans, 30°, 24 hours
Pyricularia oryzae = assay: whole plant or invertebrate; format: in vivo; conditions: Pyricularia oryzae, 120 h; for pest or weed control at 100 ppm: read-out: disease control rating, Ex. E, 100 PPM; for pest or weed control at 20 ppm: read-out: disease control rating, Ex. E, 20 PPM
Rhizoctonia solani [8] = assay: Example K cotton blight; format: in vivo; conditions: 336 h, 5 kg/ha, read-out: disease control rating, Ex. K
Method: […] Seeds and soil were then inoculated with a mixture of sand, cereal and mycelium of the fungus Rhizoctonia solani, causal agent of cotton blight, and incubated in a growth chamber at 30° C. for 14 days. Disease ratings were then made.

Sclerotium rolfsii = assay: Example M southern blight; format: in vivo; conditions: Agroathelia rolfsii, 336 h; 5 kg/ha; read-out: disease control rating, Ex. M
Method: […] Seeds and soil were then inoculated with a mixture of sand, cereal and mycelium of the fungus Sclerotium rolfsii, causal agent of sourthern blight, and incubated in a growth chamber at 30° C. for 14 days. Disease ratings were then made.

SMILES	pest or weed control at 100 ppm (Rhizoctonia solani [1])	responders at 150 mg/kg ([2]; ATCC11651, 168 h, day 7)	responders at 150 mg/kg ([2]; ATCC11651, 336 h, day 14)	responders at 150 mg/kg ([2]; ATCC11651, 504 h, day 21)	pest or weed control at 100 ppm (Plasmorpara viticola)	pest or weed control at 100 ppm (Venturia inaequalis)	pest or weed control at 100 ppm [3]	pest or weed control at 5000 g/ha [4]	pest or weed control at 100 ppm (Puccinia recondita)	pest or weed control at 100 ppm (Botrytis cinerea)	MIC [5]	pest or weed control at 100 ppm (Phytophthora infestans)	pest or weed control at 100 ppm [6]	pest or weed control at 5000 g/ha (Pythium aphanadermatum)	pest or weed control at 100 ppm (Pyricularia oryzae)	MIC [7]	pest or weed control at 5000 g/ha (Rhizoctonia solani [8])	pest or weed control at 5000 g/ha (Sclerotium rolfsii)	also measured
C=C(c1ccc(F)cc1)C(O)(Cn1cncn1)c1ccc(F)cc1 (centres unmarked) [Example 1, 2,3-Bis(4-fluorophenyl)-1-(1H-1,2,4-triazol-1-yl)-3-buten-2-ol]	97%	100%	100%	80%	12%	62%	98%	0%	100%	81%	6.3 µg/mL (≈ 19.2 µM)	0%	100%	0%	90%	–	–	–	MIC values, C. albicans ([7]; 30°, 24 hours): ≤ 0.01 µg/mL
C=C(c1ccc(F)cc1)C(O)(Cn1cncn1)c1ccc(Cl)cc1Cl (centres unmarked) [Example 2]	100%	100%	100%	80%	99%	62%	98%	0%	100%	93%	1.6 µg/mL (≈ 4.23 µM)	0%	100%	0%	95%	≤ 0.4 µg/mL	–	–	–
C=C(c1cccc(F)c1)C(O)(Cn1cncn1)c1ccc(F)cc1 (centres unmarked) [Example 15]	93%	100%	90%	60%	0%	100%	100%	0%	100%	99%	50 µg/mL (≈ 153 µM)	26%	100%	0%	1%	0.1 µg/mL (≈ 0.305 µM)	–	–	–
C=C(c1ccccc1)C(O)(Cn1cncn1)c1ccc(F)cc1 (centres unmarked) [Example 49, 2-(4-Fluorophenyl)-3-phenyl-1-(1H-1,2,4-triazol-1-yl)-3-buten-2-ol]	96%	100%	90%	60%	0%	89%	100%	0%	100%	62%	12.5 µg/mL (≈ 40.4 µM)	0%	100%	0%	76%	0.03 µg/mL (≈ 0.097 µM)	–	–	–
C=C(CO)C(O)(Cn1cncn1)c1ccc(Cl)cc1 (centres unmarked) [Example 447]	0%	–	–	–	24%	–	46%	0%	30%	24%	–	0%	0%	0%	46%	3.2 µg/mL (≈ 11.4 µM)	0%	0%	–
C=C(CO)C(O)(Cn1cncn1)c1ccc(F)cc1 (centres unmarked) [Example 450]	34%	–	–	–	51%	–	11%	0%	30%	54%	–	0%	0%	0%	46%	> 100 µg/mL	0%	0%	–
C=C(c1ccccc1)C(O)(Cn1cncn1)c1ccc(Cl)s1 (centres unmarked) [Example 618]	–	–	–	–	0%	100%	89%	80%	100%	98%	–	0%	100%	0%	0%	–	80%	–	–
C=C(c1ccc(F)cc1)C(O)(Cn1cncn1)C(C)C (centres unmarked) [Example 667]	0%	10%	0%	0%	10%	–	–	0%	–	4%	25 µg/mL (≈ 90.8 µM)	0%	–	–	0%	6.3 µg/mL (≈ 22.9 µM)	0%	0%	pest or weed control at 20 ppm (Rhizoctonia solani [1]): 0%; pest or weed control at 20 ppm (Venturia inaequalis): 13%; pest or weed control at 20 ppm [3]: 39%; pest or weed control at 20 ppm (Puccinia recondita): 0%; pest or weed control at 20 ppm (Botrytis cinerea): 7%; pest or weed control at 20 ppm [6]: 14%; pest or weed control at 20 ppm (Pyricularia oryzae): 0%
C=C(c1ccccc1)[C@](O)(Cn1cncn1)c1ccc(F)cc1 [Example 1276]	97%	100%	70%	50%	0%	100%	100%	0%	100%	96%	1.6 µg/mL (≈ 5.17 µM)	0%	–	0%	1%	0.03 µg/mL (≈ 0.097 µM)	–	–	pest or weed control at 20 ppm (Rhizoctonia solani [1]): 52%; pest or weed control at 20 ppm (Venturia inaequalis): 93%; pest or weed control at 20 ppm [3]: 100%; pest or weed control at 20 ppm (Puccinia recondita): 100%; pest or weed control at 20 ppm (Botrytis cinerea): 86%; pest or weed control at 20 ppm [6]: 100%; pest or weed control at 20 ppm (Pyricularia oryzae): 1%
